Assay results reported in patent US20060058351A1, “Novel ligands that modulate LXR-type receptors and cosmetic/pharmaceutical applications thereof” (GALDERMA RESEARCH & DEVELOPMENT, S.N.C., priority 2003, published 2006).

Target: T1, LXRβ receptor (Gal-hLXRβ-DEF in HG5LN HeLa cells) (Homo sapiens, UniProt P55055)
T1 construct: stably transported with the Gal-hLXRβ-DEF plasmid; expressed in transfected cells; host or cells: HG5LN cells (HeLa stably transfected with the (17mer)5-bGlob-Luc reporter)
T1 sequence (P55055 222-460 limits assumed): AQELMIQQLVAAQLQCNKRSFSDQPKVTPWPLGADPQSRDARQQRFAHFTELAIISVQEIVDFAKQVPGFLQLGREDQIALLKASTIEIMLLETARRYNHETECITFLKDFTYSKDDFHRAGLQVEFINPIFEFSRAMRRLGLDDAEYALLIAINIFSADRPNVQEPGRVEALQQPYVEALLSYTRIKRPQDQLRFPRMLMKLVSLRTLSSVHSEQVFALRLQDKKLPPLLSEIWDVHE
Test: LXRβ transactivation test (luciferase reporter), determination of Kd apparent by crossover curves against a reference agonist
Type: cell-based
Conditions: for KdR/KdA: ratio of KdR to KdA
Method: This activity on the LXRβ receptors is measured in the transactivation test and quantified by means of the dissociation constant Kdapp (apparent), as described in Example 3.
The activity of the LXRβ receptors is measured in a transactivation test. Activation of the receptors with an agonist (activator) in HeLa cells leads to the expression of a reporter gene, luciferase, which, in the presence of a substrate, generates light. The activation of the receptors may thus be measured by quantifying the luminescence produced after incubating the cells in the presence of a reference agonist. The antagonist products displace the agonist from its site, thus preventing activation of the receptor: there will thus be a reduction in the light produced, which may be quantified. The agonist products are tested alone and their effect is measured by measuring the activation of luminescence after incubation.
Determination of the Kdapp:
In this study, a constant that is the affinity of the molecule for the receptor is determined. Since this value can fluctuate depending on the basal activity and the expression of the receptor, it is known as the Kd apparent (KdApp).
To determine this constant, “crossover curves” of the test product against a reference agonist are produced in a 96-well plate: […] of the test product plus a concentration 0 (in the rows) and 7 concentrations of the agonist plus a 0 concentration (in the columns). This is 88 measurement points for one product and one receptor. The remaining 8 wells are used for the 100% control (total agonist) and 0% control (DMSO).
These crossover curves make it possible to determine the AC50 values (concentration at which 50% activation is observed) of the reference ligand at various concentrations of the test product. These AC50 values are used to calculate the Schild regression by plotting a straight line corresponding to the Schild equation (“quantitation in receptor pharmacology,” Terry P. Kenakin, Receptors and Channels, 2001, 7, 371-385).
In the case of an antagonist, an IC50 value (concentration inhibiting 50% of the activity) is calculated by plotting the curve of the product at the concentration of the reference ligand giving 80% activation.
The cell lines used are HG5LN cells, HeLa cells stably transfected with the (17mer)5-bGlob-Luc reporter and also stably […] with the Gal-hLXRβ-DEF plasmid. These cells are inoculated into 96-well plates at a rate of 10 000 cells per well in 100 μl of DMEM medium free of phenol red and supplemented with 10% defatted calf serum. The plates are then incubated at 37° C. and 7% CO2 for 4 hours.
The various dilutions of the test products, of the reference ligand and of the 100% control (N-(2,2,2-trifluoroethyl)-N-[4-(trifluorohydroxy-trifluoromethylethyl)phenyl]benzenesulfonamide) and of the 0% control (0.2% dimethyl sulfoxide) are added at a rate of 5 μl per well. The plates are then incubated for 18 hours at 37° C. and 7% CO2.
The culture medium is removed by turning over and 100 μl of a 1:1 PBS/luciferine mixture are added to each well. After 5 minutes, the plates are read using a luminescence detector.

[1] = KdA, Affinity for the LXRβ receptor, HG5LN HeLa cells, Gal-hLXRβ-DEF, luciferase
[2] = KdApp, apparent dissociation constant, Schild regression, LXRβ receptor
[3] = KdR, Affinity for the LXRβ receptor, HG5LN HeLa cells, Gal-hLXRβ-DEF, luciferase

Row | SMILES | Kd [1] [µM] | Kd [2] [µM] | Kd [3] [µM] | KdR/KdA
1 | CC(=O)C1(c2ccccc2)CCN(C(=O)CNC(=O)c2ccc(C3CCCCC3)cc2)CC1 [Compound 18, N-[2-(4-acetyl-4-phenylpiperidin-1-yl)-2-oxoethyl]-4-cyclohexylbenzamide] | 0.5 | 2 | 2 | 4
2 | CCCC(=O)C1(c2ccccc2)CCN(C(=O)C(C)(C)Oc2ccccc2Cl)CC1 [Compound 47, 1-{1-[2-(2-chlorophenoxy)-2-methylpropionyl]4-phenylpiperidin-4-yl}butan-1-one] | 20 | 2 | 2 | 0.1
3 | CCCC(=O)C1(c2ccccc2)CCN(C(=O)CNC(=O)c2ccc(C3CCCCC3)cc2)CC1 [Compound 54, N-[2-(4-butyryl-4-phenylpiperidin-1-yl)-2-oxoethyl]-4-cyclohexylbenzamide] | 0.5 | 2 | 2 | 4
